We go through one molecule from patent US20100261639A1, “TRIAZOLE-BASED AMINOGLYCOSIDE-PEPTIDE CONJUGATES AND METHODS OF USE” (UNIVERSITY OF MANITOBA, priority 2007, published 2010).

In this experiment the test system is S. aureus ATCC 29213. Briefly: MIC, macrobroth dilution, S. aureus ATCC 29213. It counts as cell-based, Staphylococcus aureus. Particulars: visible growth after 24 h at 37° C. As for the experimental part:
The microbiological activities of the neomycin-peptide conjugates and kanamycin-peptide conjugates against both American Type Culture Collection (ATCC) reference and clinical strains of Staphylococcus aureus, MRSA, Staphylococcus epidermidis, MRSE, Enterococcus faecalis, Enterococcus faecium, Streptococcus pneumoniae, E. coli, Pseudomonas aeruginosa, Stenotrophomonas maltophilia, Acinetobacter baumannii, and Klebsiella pneumoniae were assessed. Special focus was given to assess activity against multi-drug resistant strains of these pathogens. Antibiotic susceptibility testing was performed using the macrobroth dilution method as per Clinical Laboratory Standards Institute-CLSI (formerly National Committee for Clinical and Laboratory Standards-NCCLS) (Clinical and Laboratory Standards Institute, 2006). MIC values defined as the lowest concentration of antimicrobial agent which inhibited the development of visible growth after 24 h at 37° C.
(Broth dilution looks for growth in wells or tubes with falling amounts of substance.)

≈ marks a conversion by molar mass, not a printed value.

For the molecule `NC[C@@H]1O[C@H](O[C@H]2[C@@H](O)[C@H](O[C@@H]3[C@@H](O)[C@H](N)C[C@H](N)[C@H]3O[C@H]3O[C@H](CN)[C@@H](O)[C@H](O)[C@H]3N)O[C@@H]2CO)[C@H](N)[C@@H](O)[C@@H]1O` [Neomycin B, neomycin B], the “minimal inhibitory concentration (MIC)” value was found to be 2 µg/mL (≈ 3.25 µM).
